Measured values as given in US20110040086A1, “Novel Beta-Lactam Antibiotics, Methods for Their Production, and Their Use” (DRITTE PATENTPORTFOLIO BETEILIGUNGSGESELLSCHAFT MB, priority 2007, published 2011).

What was measured:
S. aureus ATCC 6538 = experiment: agar diffusion test (Test System II, multi-resistant germs); assay type: cell-based, Staphylococcus aureus
In short: (§1)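 Discs loaded with 10, 50 or 100 μg compound (dissolved in methanol or distilled water) placed on Müller-Hinton agar II inoculated with McFarland 0.5 suspension. Incubated 18-20 h at 37 °C. Inhibition zone diameter read as activity.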

S. aureus 38418 = experiment: as above; assay type: cell-based, Staphylococcus aureus
In short: as §1

S. epidermidis 125 = experiment: as above; assay type: cell-based, Staphylococcus epidermidis
In short: as §1

S. epidermidis 847 = experiment: as above; assay type: cell-based, Staphylococcus epidermidis; set-up: key: r = resistant (no detectable zone of inhibition)
In short: as §1

[1] = system: Staphylococcus haemolyticus 535; experiment: as above; assay type: cell-based; set-up: key: r = resistant (no detectable zone of inhibition)
In short: as §1

[2] = system: Enterococcus faecalis 769; experiment: as above; assay type: cell-based; set-up: key: r = resistant (no detectable zone of inhibition)
In short: as §1

[3] = system: Staphylococcus aureus 315; experiment: as above; assay type: cell-based; set-up: key: r = resistant (no detectable zone of inhibition)
In short: as §1

S. aureus 520 = experiment: as above; assay type: cell-based, Staphylococcus aureus; set-up: key: r = resistant (no detectable zone of inhibition)
In short: as §1

[4] = system: S. aureus North Germany strain; experiment: as above; assay type: cell-based, Staphylococcus aureus; set-up: key: r = resistant (no detectable zone of inhibition)
In short: as §1

S. aureus 36881 = experiment: as above; assay type: cell-based, Staphylococcus aureus; set-up: key: r = resistant (no detectable zone of inhibition)
In short: as §1

[5] = system: Staphylococcus aureus col.; experiment: as above; assay type: cell-based; conditions: quantity 0.09 μmol
Method: The test substances are deposited in stepped quantities (10 μg, 50 μg, 100 μg) onto active ingredient carriers (sensi-discs). For this purpose, the test substances are dissolved in methanol or A. dest. according to their solubility. Each inoculated plate is fitted with 3 test sheets.
Test System II (Effect Against Multi-Resistant Germs)
For this purpose, bacteria is cultivated on Müller-Hinton-Agar II plates.
With 1-1.5 ml physiological saline solution, a bacteria suspension of McFarland 0.5 (corresponds to a bacteria density of 150×10^6 germs) is produced. Then, with a sterile glass rod, a small drop of bacteria suspension is placed on the Müller-Hinton-Agar plate and coated in three layers (vertical, horizontal, and transverse). Thereafter, the sensi-discs with the novel semi-synthetic test substances are placed on top. The fitted plates are incubated for 18-20 hours at 37° C. After incubation, the diameters of the zones of inhibition are read as a measure for the antimicrobial activity of the novel semi-synthetic test substances.

S. aureus 33490 = experiment: as above; assay type: cell-based, Staphylococcus aureus; set-up: key: r = resistant (no detectable zone of inhibition); conditions: quantity 0.09 μmol
In short: as §1

[6] = system: Staphylococcus aureus ATCC 6538; experiment: mouse infected with Staphylococcus aureus infection model (survival); assay type: in vivo, BALB/c mice
In short: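 BALB/c mice, at least 3 per group, made neutropenic with cyclophosphamide i.p. (250 mg/kg day 0, 100 mg/kg day 2). Infected i.p. on day 3 with 10 μl/g of S. aureus suspension at OD550 0.6 (ca. 10^10-10^12 CFU). Antibiotic given i.p. in PBS with 3% DMSO 30 min post-infection, then repeated; survival recorded.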

[7] = Quantity n 0.02 mol (first line per ingredient)
[8] = Quantity n 0.1 mol (second line per ingredient)
[9] = Quantity n 0.2 mol (third line per ingredient)
[10] = Quantity n 0.02 (first line per ingredient)
[11] = Quantity n 0.1 (second line per ingredient)
[12] = Quantity n 0.2 (third line per ingredient)

Row | Molecule | Diameter of zone of inhibition, S. aureus ATCC 6538 (S. aureus ATCC 6538; [7]) [mm] | Diameter of zone of inhibition, S. aureus ATCC 6538 (S. aureus ATCC 6538; [8]) [mm] | Diameter of zone of inhibition, S. aureus ATCC 6538 (S. aureus ATCC 6538; [9]) [mm] | Diameter of zone of inhibition, S. aureas 38418 (S. aureus 38418; Quantity n 0.02) | Diameter of zone of inhibition, S. aureas 38418 (S. aureus 38418; Quantity n 0.1) [mm] | Diameter of zone of inhibition, S. aureas 38418 (S. aureus 38418; Quantity n 0.2) [mm] | Diameter of zone of inhibition, S. epidermidis 125 (S. epidermidis 125; [7]) [mm] | Diameter of zone of inhibition, S. epidermidis 125 (S. epidermidis 125; [8]) [mm] | Diameter of zone of inhibition, S. epidermidis 125 (S. epidermidis 125; [9]) [mm] | Diameter of zone of inhibition, S. epidermidis 847 (S. epidermidis 847; [10]) | Diameter of zone of inhibition, S. epidermidis 847 (S. epidermidis 847; [11]) [mm] | Diameter of zone of inhibition, S. epidermidis 847 (S. epidermidis 847; [12]) [mm] | Diameter of zone of inhibition [1, 7] | Diameter of zone of inhibition [1, 8] | Diameter of zone of inhibition [1, 9] [mm] | Diameter of zone of inhibition, Enterococcus faecalis 769 ([2]; Quantity n 0.02) | Diameter of zone of inhibition, Enterococcus faecalis 769 ([2]; Quantity n 0.1) | Diameter of zone of inhibition, Enterococcus faecalis 769 ([2]; Quantity n 0.2) | Diameter of zone of inhibition, Staphylococcus aureus 315 ([3]; Quantity n 0.02 mol) | Diameter of zone of inhibition, Staphylococcus aureus 315 ([3]; Quantity n 0.1 mol) [mm] | further results
1 | 3-chlorine-7-[2-(5-methyl-3,4-dioxocyclohexa-1,5-dienylamino)-2-phenyl-acetylamino]-8-oxo-5-azabicyclo[4.2.0]oct-3-ene-4-carboxylic acid [1s] | 20 | 30 | >30 | 14 mm | 24 | 28 | 14 | 22 | 26 | r | 14 | 18 | r | r | 10 | r | r | r | r | 8 | Diameter of zone of inhibition, Staphylococcus aureus 315 ([3]; Quantity n 0.2 mol): 12 mm; Diameter of zone of inhibition, S. aureus 520 (S. aureus 520; Quantity n 0.02 mol): r; Diameter of zone of inhibition, S. aureus 520 (S. aureus 520; Quantity n 0.1 mol): r; Diameter of zone of inhibition, S. aureus 520 (S. aureus 520; Quantity n 0.2 mol): 10 mm; Diameter of zone of inhibition, S. aureus North German strain [4, 7]: r; Diameter of zone of inhibition, S. aureus North German strain [4, 8]: 8 mm; Diameter of zone of inhibition, S. aureus North German strain [4, 9]: 14 mm; Diameter of zone of inhibition, S. aureas 36881 (S. aureus 36881; Quantity n 0.02 mol): r; Diameter of zone of inhibition, S. aureas 36881 (S. aureus 36881; Quantity n 0.1 mol): r; Diameter of zone of inhibition, S. aureas 36881 (S. aureus 36881; Quantity n 0.2 mol): 10 mm
2 | CC1(C)SC2C(NC(=O)C(NC3=C(C(=O)NCCO)C(=O)C=CC3=O)c3ccc(O)cc3)C(=O)N2C1C(=O)O (stereo not shown) [6-{2-[2-(2-hydroxyethylcarbamoyl)-3,6-dioxocyclohexa-1,4-dienylamino]-2-(4-hydroxyphenyl)-acetylamino-penicillanic acid] |  |  |  |  |  |  |  |  |  |  |  |  |  |  |  |  |  |  |  |  | Diameter of zone of inhibition (S. aureus ATCC 6538; quantity 0.09 μmol): 44 mm; Diameter of zone of inhibition (S. aureus 38418; quantity 0.09 μmol): 34 mm; Diameter of zone of inhibition [5]: 32 mm; Diameter of zone of inhibition (S. epidermidis 125; quantity 0.09 μmol): 28 mm; Diameter of zone of inhibition (S. epidermidis 847; quantity 0.09 μmol): 24 mm; Diameter of zone of inhibition ([1]; quantity 0.09 μmol): r; Diameter of zone of inhibition ([2]; quantity 0.09 μmol): 28 mm; Diameter of zone of inhibition ([3]; quantity 0.09 μmol): r; Diameter of zone of inhibition (S. aureus 33490): 18 mm; Diameter of zone of inhibition (S. aureus 520; quantity 0.09 μmol): r; Diameter of zone of inhibition (S. aureus 36881; quantity 0.09 μmol): r^2
3 | CC1=CC(NC(C(=O)NC2C(=O)N3C(C(=O)O)=C(C)CSC23)c2ccc(O)cc2)=CC(=O)C1=O (stereo not shown) [1q] | 16 | 20 | 26 | 10^2 mm | 18 | 22 | 12 | 20 | 26 | r | 14 | 16 | r | r | 10 | r^1 | r | 10 mm | r | 10 | Diameter of zone of inhibition, Staphylococcus aureus 315 ([3]; Quantity n 0.2 mol): 14 mm; Diameter of zone of inhibition, S. aureus 520 (S. aureus 520; Quantity n 0.02 mol): r; Diameter of zone of inhibition, S. aureus 520 (S. aureus 520; Quantity n 0.1 mol): r; Diameter of zone of inhibition, S. aureus 520 (S. aureus 520; Quantity n 0.2 mol): 10 mm; Diameter of zone of inhibition, S. aureus North German strain [4, 7]: r; Diameter of zone of inhibition, S. aureus North German strain [4, 8]: 10 mm; Diameter of zone of inhibition, S. aureus North German strain [4, 9]: 12 mm; Diameter of zone of inhibition, S. aureas 36881 (S. aureus 36881; Quantity n 0.02 mol): r; Diameter of zone of inhibition, S. aureas 36881 (S. aureus 36881; Quantity n 0.1 mol): r; Diameter of zone of inhibition, S. aureas 36881 (S. aureus 36881; Quantity n 0.2 mol): 10 mm; Survival/tested mice n/n ([6]; 2 × 0.5 mg (25 mg/kg) i.p.): 3/6; Survival/tested mice n/n ([6]; 2 × 1.0 mg (50 mg/kg) i.p.): 1/3
